Columns and labels:
PRS enzyme = molecular target: T1, PRS enzyme (Homo sapiens, UniProt P07814); assay: PRS enzyme activity inhibition experiment; format: biochemical; conditions: purified PRS protein subcloned from EPRS cDNA; [3H]proline, 37° C., 5 to 10 minutes, liquid scintillation counter; read-out: PRS IC50
T1 construct: the portion corresponding to PRS in cDNA of EPRS was subcloned; made in house
T1 sequence (P07814 1007-1512 limits assumed): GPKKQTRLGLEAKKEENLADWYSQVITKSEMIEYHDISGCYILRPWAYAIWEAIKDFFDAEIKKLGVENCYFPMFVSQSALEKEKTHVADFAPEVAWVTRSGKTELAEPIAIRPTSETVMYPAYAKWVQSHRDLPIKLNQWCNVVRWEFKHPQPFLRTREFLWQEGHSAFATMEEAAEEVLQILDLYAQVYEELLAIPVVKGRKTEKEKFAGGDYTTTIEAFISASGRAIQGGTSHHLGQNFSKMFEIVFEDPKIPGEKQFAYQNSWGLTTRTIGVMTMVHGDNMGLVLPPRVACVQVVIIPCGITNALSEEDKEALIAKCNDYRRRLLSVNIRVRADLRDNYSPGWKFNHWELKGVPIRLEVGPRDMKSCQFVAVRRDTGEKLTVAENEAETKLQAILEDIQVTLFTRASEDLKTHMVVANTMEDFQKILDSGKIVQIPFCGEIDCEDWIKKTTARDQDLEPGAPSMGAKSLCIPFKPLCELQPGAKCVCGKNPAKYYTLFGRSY
Procedure: Specifically, the portion corresponding to PRS in cDNA of EPRS was subcloned, and the obtained high-purity PRS protein was purified and used in the experiment. The compounds (1 μM) prepared in Examples were added into the reaction buffer (20 mM KPO4 (pH 7.4), 6 mM MgAc, 5 mM ATP, […] tRNA, 0.5 mM DTT, […][^3H]proline (1 mCi/mL)) and allowed to react at 37° C. for 5 to 10 minutes. The reaction was terminated with 3M paper that was in advance dried by addition of 5% TCA. The radioactivity was measured using a liquid scintillation counter.
% Inhibition and IC50 values of the respective compounds were calculated and analyzed using Microsoft Excel or Sigma Plot 8.0. In Table 1, the results are divided into A, B and C according to the range of IC50.

NCI-H460 cells = assay: Cancer cell growth inhibition experiment (MTT assay); format: cell-based; conditions: Homo sapiens, lung cancer cell line, compounds 48 hours, cell viability by MTT assay
Procedure: NCl-H460 cells, lung cancer cell lines, were cultured in 5% CO2, 37° C. incubator using a flask for 75 cm^2 tissue culture. 96-well plates were used for the evaluation. These were prepared by differently applying at concentrations in the range of 6,000 to 12,000 cells/well according to the growth rate of the cell lines. The medium containing 5% FBS were dispensed in 200 μL/well and used. The medium were cultured for 24 hours. After confirming the cell status and dispensing form of a 96-well plate under a microscope, they were used for subsequent experiments. The compounds were evaluated at concentrations of 100, 30, 10, 3, 1, 0.3, 0.03, 0.01 μM. After removing the existing medium, the compounds with various concentrations were treated in an amount of 200 μL/well. The compounds-treated plates were further cultured for 48 hours, and the cell viabilities were measured by MTT assay to calculate IC50 values.
% Inhibition and IC50 values of the respective compounds were calculated and analyzed using Sigma Plot 8.0. In Table 2, the results are divided into A, B and C according to the range of IC50. The case where the derived IC50 is 3 μM or less is represented by “A”, the case where the IC50 is 3 to 10 μM is represented by “B”, and the case where the IC50 is 10 μM or higher is represented by “C”.

IC50 (PRS enzyme)	IC50 (NCI-H460 cells)	SMILES
< 0.1 µM	3 to 10 µM	O=C(C[C@H]1NCCC[C@@H]1O)Cn1cnc2ccc(-c3ccccc3)cc21 [Example 24, 1-((2R,3S)-3-hydroxypiperidin-2-yl)-3-(6-phenyl-1H-benzo[d]imidazol-1-yl)propan-2-one]
< 0.1 µM	3 to 10 µM	O=C(C[C@H]1NCCC[C@@H]1O)Cn1cnc2ccc(-c3ccc(Cl)cc3)cc21 [Example 28, 1-(6-(4-chlorophenyl)-1H-benzo[d]imidazol-1-yl)-3-((2R,3S)-3-hydroxypiperidin-2-yl)propan-2-one]
< 0.1 µM	≤ 3 µM	O=C(C[C@H]1NCCC[C@@H]1O)Cn1cnc2ccc(-c3cccc(C(F)(F)F)c3)cc21 [Example 29, 1-((2R,3S)-3-hydroxypiperidin-2-yl)-3-(6-(3-(trifluoromethyl)phenyl)-1H-benzo[d]imidazol-1-yl)propan-2-one]
< 0.1 µM	3 to 10 µM	Cc1cccc(-c2ccc3ncn(CC(=O)C[C@H]4NCCC[C@@H]4O)c3c2)c1 [Example 30, 1-((2R,3S)-3-hydroxypiperidin-2-yl)-3-(6-(m-tolyl)-1H-benzo[d]imidazol-1-yl)propan-2-one]
< 0.1 µM	3 to 10 µM	O=C(C[C@H]1NCCC[C@@H]1O)Cn1cnc2ccc(-c3cc(Cl)cc(Cl)c3)cc21 [Example 31, 1-(6-(3,5-dichlorophenyl)-1H-benzo[d]imidazol-1-yl)-3-((2R,3S)-3-hydroxypiperidin-2-yl)propan-2-one]
< 0.1 µM	≤ 3 µM	O=C(C[C@H]1NCCC[C@@H]1O)Cn1cnc2ccc(-c3cc(F)cc(Cl)c3)cc21 [Example 32, 1-(6-(3-chloro-5-fluorophenyl)-1H-benzo[d]imidazol-1-yl)-3-((2R,3S)-3-hydroxypiperidin-2-yl)propan-2-one]
< 0.1 µM	3 to 10 µM	Cc1cc(Cl)cc(-c2ccc3ncn(CC(=O)C[C@H]4NCCC[C@@H]4O)c3c2)c1 [Example 34, 1-(6-(3-chloro-5-methylphenyl)-1H-benzo[d]imidazol-1-yl)-3-((2R,3S)-3-hydroxypiperidin-2-yl)propan-2-one]
< 0.1 µM	3 to 10 µM	N#Cc1cc(Cl)cc(-c2ccc3ncn(CC(=O)C[C@H]4NCCC[C@@H]4O)c3c2)c1 [Example 36, 3-chloro-5-(1-(3-((2R,3S)-3-hydroxypiperidin-2-yl)-2-oxopropyl)-1H-benzo[d]imidazol-6-yl)benzonitrile]
< 0.1 µM	≥ 10 µM	O=C(C[C@H]1NCCC[C@@H]1O)Cn1cnc2ccc(-c3cn[nH]c3)cc21 [Example 37, 1-(6-(1H-pyrazol-4-yl)-1H-benzo[d]imidazol-1-yl)-3-((2R,3S)-3-hydroxypiperidin-2-yl)propan-2-one]
0.1 to 0.5 µM	≥ 10 µM	O=C(C[C@H]1NCCC[C@@H]1O)Cn1cnc2ccc(-c3cc[nH]n3)cc21 [Example 38, 1-(6-(1H-pyrazol-3-yl)-1H-benzo[d]imidazol-1-yl)-3-((2R,3S)-3-hydroxypiperidin-2-yl)propan-2-one]
0.1 to 0.5 µM	≥ 10 µM	O=C(C[C@H]1NCCC[C@@H]1O)Cn1cnc2ccc(-c3cscn3)cc21 [Example 39, 1-((2R,3S)-3-hydroxypiperidin-2-yl)-3-(6-(thiazol-4-yl)-1H-benzo[d]imidazol-1-yl)propan-2-one]
0.1 to 0.5 µM	≤ 3 µM	O=C(C[C@H]1NCCC[C@@H]1O)Cn1cnc2ccc(-c3ccccc3F)nc21 [Example 43, 1-(5-(2-fluorophenyl)-3H-imidazo[4,5-b]pyridin-3-yl)-3-((2R,3S)-3-hydroxypiperidin-2-yl)propan-2-one]
< 0.1 µM	≤ 3 µM	O=C(C[C@H]1NCCC[C@@H]1O)Cn1cnc2ccc(-c3cccc(Cl)c3)nc21 [Example 46, 1-(5-(3-chlorophenyl)-3H-imidazo[4,5-b]pyridin-3-yl)-3-((2R,3S)-3-hydroxypiperidin-2-yl)propan-2-one]
0.1 to 0.5 µM	≥ 10 µM	O=C(C[C@H]1NCCC[C@@H]1O)Cn1cnc2cccc(-c3ccccc3)c21 [Example 48, 1-((2R,3S)-3-hydroxypiperidin-2-yl)-3-(7-phenyl-1H-benzo[d]imidazol-1-yl)propan-2-one]

Second part, the molecule before the results:

SMILES	IC50 (PRS enzyme)	IC50 (NCI-H460 cells)
Cc1c(-c2cscn2)ccc2c1ncn2CC(=O)C[C@H]1NCCC[C@@H]1O [Example 23, 1-((2R,3S)-3-hydroxypiperidin-2-yl)-3-(4-methyl-5-(thiazol-4-yl)-1H-benzo[d]imidazol-1-yl)propan-2-one]	< 0.1 µM	≥ 10 µM
O=C(C[C@H]1NCCC[C@@H]1O)Cn1cnc2ccc(-c3cccc(F)c3)cc21 [Example 25, 1-(6-(3-fluorophenyl)-1H-benzo[d]imidazol-1-yl)-3-((2R,3S)-3-hydroxypiperidin-2-yl)propan-2-one]	< 0.1 µM	≤ 3 µM
O=C(C[C@H]1NCCC[C@@H]1O)Cn1cnc2ccc(-c3ccccc3Cl)cc21 [Example 26, 1-(6-(2-chlorophenyl)-1H-benzo[d]imidazol-1-yl)-3-((2R,3S)-3-hydroxypiperidin-2-yl)propan-2-one]	< 0.1 µM	3 to 10 µM
O=C(C[C@H]1NCCC[C@@H]1O)Cn1cnc2ccc(-c3cccc(Cl)c3)cc21 [Example 27, 1-(6-(3-chlorophenyl)-1H-benzo[d]imidazol-1-yl)-3-((2R,3S)-3-hydroxypiperidin-2-yl)propan-2-one]	< 0.1 µM	≤ 3 µM
O=C(C[C@H]1NCCC[C@@H]1O)Cn1cnc2ccc(-c3ccc(F)c(Cl)c3)cc21 [Example 33, 1-(6-(3-chloro-4-fluorophenyl)-1H-benzo[d]imidazol-1-yl)-3-((2R,3S)-3-hydroxypiperidin-2-yl)propan-2-one]	< 0.1 µM	3 to 10 µM
COc1cc(Cl)cc(-c2ccc3ncn(CC(=O)C[C@H]4NCCC[C@@H]4O)c3c2)c1 [Example 35, 1-(6-(3-chloro-5-methoxyphenyl)-1H-benzo[d]imidazol-1-yl)-3-((2R,3S)-3-hydroxypiperidin-2-yl)propan-2-one]	< 0.1 µM	3 to 10 µM
O=C(C[C@H]1NCCC[C@@H]1O)Cn1cnc2ccc(-c3ccc(=O)[nH]c3)cc21 [Example 40, 5-(1-(3-((2R,3S)-3-hydroxypiperidin-2-yl)-2-oxopropyl)-1H-benzo[d]imidazol-6-yl)pyridin-2(1H)-one]	> 0.5 µM	≥ 10 µM
O=C(C[C@H]1NCCC[C@@H]1O)Cn1cnc2ncc(-c3cccc(Cl)c3)cc21 [Example 41, 1-(6-(3-chlorophenyl)-1H-imidazo[4,5-b]pyridin-1-yl)-3-((2R,3S)-3-hydroxypiperidin-2-yl)propan-2-one]	< 0.1 µM	≥ 10 µM
O=C(C[C@H]1NCCC[C@@H]1O)Cn1cnc2ccc(-c3cccc(F)c3)nc21 [Example 44, 1-(5-(3-fluorophenyl)-3H-imidazo[4,5-b]pyridin-3-yl)-3-((2R,3S)-3-hydroxypiperidin-2-yl)propan-2-one]	< 0.1 µM	≤ 3 µM
O=C(C[C@H]1NCCC[C@@H]1O)Cn1cnc2ccc(-c3ccc(F)cc3)nc21 [Example 45, 1-(5-(4-fluorophenyl)-3H-imidazo[4,5-b]pyridin-3-yl)-3-((2R,3S)-3-hydroxypiperidin-2-yl)propan-2-one]	< 0.1 µM	3 to 10 µM
O=C(C[C@H]1NCCC[C@@H]1O)Cn1cnc2ccc(-c3cccc(C(F)(F)F)c3)nc21 [Example 47, 1-((2R,3S)-3-hydroxypiperidin-2-yl)-3-(5-(3-(trifluoromethyl)phenyl)-3H-imidazo[4,5-b]pyridin-3-yl)propan-2-one]	< 0.1 µM	≤ 3 µM
O=C(C[C@H]1NCCC[C@@H]1O)Cn1cnc2cccc(-c3cccc(F)c3)c21 [Example 49, 1-(7-(3-fluorophenyl)-1H-benzo[d]imidazol-1-yl)-3-((2R,3S)-3-hydroxypiperidin-2-yl)propan-2-one]	< 0.1 µM	≤ 3 µM
